Test results published in the supplement of paper PMC13207355.

Legend:
Details in all cases: exposure time: 72 h
[1] = system: E13 (patient-derived glioblastoma stem cells of classical subtype); experiment: surviving fraction (nuclei count normalised to DMSO); higher = more cells surviving (less toxic)
[2] = system: E21 (patient-derived glioblastoma stem cells of mesenchymal subtype); experiment: as above
[3] = system: E28 (patient-derived glioblastoma stem cells of classical subtype); experiment: as above
[4] = system: E31 (patient-derived glioblastoma stem cells of proneural subtype); experiment: as above
[5] = system: E34 (patient-derived glioblastoma stem cells of proneural subtype); experiment: as above
[6] = system: E57 (patient-derived glioblastoma stem cells of mesenchymal subtype); experiment: as above
[7] = system: FT3469 (normal neural stem cell line); experiment: as above
[8] = system: E13; experiment: phenotypic distance (Euclidean, principal components) from DMSO controls (arbitrary units); higher = stronger morphological change
[9] = system: E21; experiment: as above
[10] = system: E28; experiment: as above
[11] = system: E31; experiment: as above
[12] = system: E34; experiment: as above
[13] = system: E57; experiment: as above
[14] = system: FT3469; experiment: as above
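Throughout, for phenotypic distance (Euclidean, principal components) from DMSO controls: cell Painting imaging in 384-well plates, CellProfiler features reduced to at least 20 principal components, Euclidean distance versus same-plate DMSO vehicle wells (0.1% v/v), median over six images per well.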
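Throughout, for surviving fraction (nuclei count normalised to DMSO): nuclei counted by high-content imaging of Hoechst-stained cells in laminin-coated 384-well plates, relative to 0.1% DMSO vehicle wells, with staurosporine as cell-death control.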

COc1cc2c(cc1-c1c(C)noc1C)ncc1[nH]c(=O)n([C@H](C)c3ccccn3)c12
Details	phenotypic distance	surviving fraction
[1], 4.1 nM	–	0.96
[1], 12.3 nM	–	0.821
[1], 37 nM	–	0.885
[1], 111.1 nM	–	0.757
[1], 333.3 nM	–	0.79
[1], 1000 nM	–	0.562
[1], 3000 nM	–	0.473
[2], 4.1 nM	–	0.942
[2], 12.3 nM	–	1.05
[2], 37 nM	–	0.96
[2], 111.1 nM	–	0.873
[2], 333.3 nM	–	0.78
[2], 1000 nM	–	0.567
[2], 3000 nM	–	0.391
[3], 4.1 nM	–	1.05
[3], 12.3 nM	–	0.934
[3], 37 nM	–	1.14
[3], 111.1 nM	–	0.933
[3], 333.3 nM	–	0.976
[3], 1000 nM	–	0.652
[3], 3000 nM	–	0.782
[4], 4.1 nM	–	1.12
[4], 12.3 nM	–	0.852
[4], 37 nM	–	1.18
[4], 111.1 nM	–	0.997
[4], 333.3 nM	–	1.22
[4], 1000 nM	–	0.817
[4], 3000 nM	–	0.628
[5], 4.1 nM	–	0.897
[5], 12.3 nM	–	1.11
[5], 37 nM	–	0.994
[5], 111.1 nM	–	0.972
[5], 333.3 nM	–	1.03
[5], 1000 nM	–	0.882
[5], 3000 nM	–	0.683
[6], 4.1 nM	–	1.04
[6], 12.3 nM	–	0.964
[6], 37 nM	–	1.14
[6], 111.1 nM	–	1.08
[6], 333.3 nM	–	0.915
[6], 1000 nM	–	0.653
[6], 3000 nM	–	0.533
[7], 4.1 nM	–	0.954
[7], 12.3 nM	–	0.984
[7], 37 nM	–	0.981
[7], 111.1 nM	–	0.987
[7], 333.3 nM	–	0.837
[7], 1000 nM	–	0.73
[7], 3000 nM	–	0.654
[8], 4.1 nM	0.723	–
[8], 12.3 nM	0.923	–
[8], 37 nM	3.5	–
[8], 111.1 nM	1.73	–
[8], 333.3 nM	2.84	–
[8], 1000 nM	3.74	–
[8], 3000 nM	3.72	–
[9], 4.1 nM	0.956	–
[9], 12.3 nM	0.64	–
[9], 37 nM	0.943	–
[9], 111.1 nM	1.42	–
[9], 333.3 nM	2.79	–
[9], 1000 nM	4.44	–
[9], 3000 nM	6.05	–
[10], 4.1 nM	0.949	–
[10], 12.3 nM	0.901	–
[10], 37 nM	0.621	–
[10], 111.1 nM	1.03	–
[10], 333.3 nM	1.35	–
[10], 1000 nM	1.72	–
[10], 3000 nM	1.77	–
[11], 4.1 nM	0.332	–
[11], 12.3 nM	0.436	–
[11], 37 nM	0.51	–
[11], 111.1 nM	0.757	–
[11], 333.3 nM	0.725	–
[11], 1000 nM	1.98	–
[11], 3000 nM	2.07	–
[12], 4.1 nM	1.02	–
[12], 12.3 nM	0.609	–
[12], 37 nM	0.687	–
[12], 111.1 nM	1.15	–
[12], 333.3 nM	1.46	–
[12], 1000 nM	1.79	–
[12], 3000 nM	2.96	–
[13], 4.1 nM	4.06	–
[13], 12.3 nM	7.45	–
[13], 37 nM	0.734	–
[13], 111.1 nM	1.05	–
[13], 333.3 nM	1.91	–
[13], 1000 nM	3.16	–
[13], 3000 nM	3.48	–
[14], 4.1 nM	1.21	–
[14], 12.3 nM	1.17	–
[14], 37 nM	1.25	–
[14], 111.1 nM	1.2	–
[14], 333.3 nM	1.04	–
[14], 1000 nM	1.53	–
[14], 3000 nM	3.06	–

CN(C)C(=O)Oc1ccc[n+](C)c1 [Pyridostigmine iodide]
Details	phenotypic distance	surviving fraction
[1], 4.1 nM	–	1.02
[1], 12.3 nM	–	1.15
[1], 37 nM	–	1.04
[1], 111.1 nM	–	0.975
[1], 333.3 nM	–	1.06
[1], 1000 nM	–	1.03
[1], 3000 nM	–	0.989
[2], 4.1 nM	–	0.969
[2], 12.3 nM	–	1.03
[2], 37 nM	–	1.08
[2], 111.1 nM	–	0.887
[2], 333.3 nM	–	0.981
[2], 1000 nM	–	0.99
[2], 3000 nM	–	1.04
[3], 4.1 nM	–	1.07
[3], 12.3 nM	–	0.975
[3], 37 nM	–	1.02
[3], 111.1 nM	–	1.05
[3], 333.3 nM	–	0.949
[3], 1000 nM	–	1.18
[3], 3000 nM	–	0.96
[4], 4.1 nM	–	0.967
[4], 12.3 nM	–	1.05
[4], 37 nM	–	0.914
[4], 111.1 nM	–	1.02
[4], 333.3 nM	–	1.07
[4], 1000 nM	–	0.944
[4], 3000 nM	–	0.851
[5], 4.1 nM	–	1.17
[5], 12.3 nM	–	0.894
[5], 37 nM	–	1.01
[5], 111.1 nM	–	0.914
[5], 333.3 nM	–	0.904
[5], 1000 nM	–	1.05
[5], 3000 nM	–	1.24
[6], 4.1 nM	–	1.16
[6], 12.3 nM	–	1.04
[6], 37 nM	–	0.923
[6], 111.1 nM	–	0.99
[6], 333.3 nM	–	0.98
[6], 1000 nM	–	1.01
[6], 3000 nM	–	0.937
[7], 4.1 nM	–	1.01
[7], 12.3 nM	–	1.12
[7], 37 nM	–	1.2
[7], 111.1 nM	–	1.07
[7], 333.3 nM	–	1.12
[7], 1000 nM	–	1.06
[7], 3000 nM	–	1.15
[8], 4.1 nM	0.653	–
[8], 12.3 nM	0.436	–
[8], 37 nM	0.527	–
[8], 111.1 nM	0.34	–
[8], 333.3 nM	0.667	–
[8], 1000 nM	0.894	–
[8], 3000 nM	1.1	–
[9], 4.1 nM	0.939	–
[9], 12.3 nM	0.565	–
[9], 37 nM	0.637	–
[9], 111.1 nM	0.901	–
[9], 333.3 nM	3.46	–
[9], 1000 nM	1.09	–
[9], 3000 nM	1.02	–
[10], 4.1 nM	0.458	–
[10], 12.3 nM	0.757	–
[10], 37 nM	0.73	–
[10], 111.1 nM	0.63	–
[10], 333.3 nM	0.567	–
[10], 1000 nM	0.651	–
[10], 3000 nM	0.684	–
[11], 4.1 nM	0.409	–
[11], 12.3 nM	0.507	–
[11], 37 nM	0.601	–
[11], 111.1 nM	0.878	–
[11], 333.3 nM	0.996	–
[11], 1000 nM	2.91	–
[11], 3000 nM	0.798	–
[12], 4.1 nM	0.578	–
[12], 12.3 nM	0.331	–
[12], 37 nM	1.86	–
[12], 111.1 nM	0.616	–
[12], 333.3 nM	0.79	–
[12], 1000 nM	0.731	–
[12], 3000 nM	0.846	–
[13], 4.1 nM	0.948	–
[13], 12.3 nM	0.52	–
[13], 37 nM	0.595	–
[13], 111.1 nM	0.71	–
[13], 333.3 nM	0.854	–
[13], 1000 nM	0.982	–
[13], 3000 nM	0.881	–
[14], 4.1 nM	0.42	–
[14], 12.3 nM	0.709	–
[14], 37 nM	0.762	–
[14], 111.1 nM	0.872	–
[14], 333.3 nM	0.927	–
[14], 1000 nM	0.794	–
[14], 3000 nM	1.39	–
